Legend:
P-gp = P-gp (Homo sapiens, UniProt P08183); assay: Semi-quantitative MS analysis of enriched AMEND preparations from control and P-gp knockdown T84 cells; details: for Average (relative abundance, normalized to anandamide-d8 standard): anandamide-d8 standard at 1 μg/μL
From the text: Generation of P-gp knockdown T84 cell lines. Purified DNA containing shRNA constructs targeting the mdr1a gene in a pLK0.1 plasmid background was obtained from the UMass RNAi core. Constructs were as follows: B4 (Clone ID: TRCN0000059683), B5 (Clone ID: TRCN0000059684), B6 (Clone ID: TRCN0000059685), B7 (Clone ID: TRCN0000059686), B8 (Clone ID: TRCN0000059687). Lentiviruses were produced by transfecting packaging cells (293T) with psPAX2, pMD.2G, and pLK0.1 plasmid constructs, using Trans-IT-LT1 lipid (Mirus Bio). After 48 hours, lentiviral supernatants were harvested, combined with 8 μg/mL polybrene (Sigma-Aldrich) and applied to T84 cells in 20% confluent monolayers. This process was repeated 24 hours later, and 48 hours following the second transfection, resistant cells were selected with 5 μg/mL puromycin.
Production of enriched AMEND. T84 cells were grown as confluent monolayers in 162 cm^2 flasks and equilibrated in Hanks Buffered Saline Solution with Mg^2+/Ca^2+ (HBSS+/+) at 37° C., 5% CO2. […] Cell supernatants collected over the course of five hours were pooled from 30 flasks, lyophilized, resuspended in water and ultrafiltered through Amicon 1,000-Da cutoff membrane (Millipore) with N2 positive pressure. Samples were captured on a C18 Bakerbond® SepPak column, washed with water and hexane, eluted with methanol, dried under N2 gas and stored at −80° C. Before use in migration experiments, samples were resuspended in HBSS+/+as needed. For screening in the DiscoveRx GPCR β-arrestin activity assay (Fremont, CA), samples were resuspended in PBS to provide a 1000× solution for screening.
LC/MS analysis of AMEND. MeOH-eluted preparations as above were dried under a stream of N2 (g), re-suspended in MeOH/buffer and separated by HPLC using a Vydac (Hesperia, CA) C18 (10 um; 300 Å) semi-preparative column ([…]). Active AMEND fractions were characterized by HPLC/Mass spectrometry (Genesis C18 (4 um, 120 Å) analytical HPLC column (4.6×150 mm) equilibrated with 5 mM triethylamine acetic acid (pH 7.2) with the effluent analyzed by using a Finnigan LCQDeca electrospray mass spectrometer.
Selected samples were analyzed for high mass accuracy determination and solubilized in 50:50 acetonitrile:H2O with 0.2% formic acid. A MAXIS-HD ultra-high resolution quadrupole time-of-flight (UHR-ESI-QTOF) mass spectrometer (Bruker Daltonik GmbH, Bremen, Germany) was used; this was coupled to a syringe driver (Hamilton, Bonaduz, Switzerland) with the sample solution being infused at a rate of 3 μL/min.
Nitrogen acted as the nebulizing gas, applied at a pressure of 2 bar. The drying gas was also nitrogen, supplied at a flow rate of 8 L/min and a temperature of 200° C. Positive ion mode was used with a corresponding capillary voltage of −4500V. Only full scan data was acquired. For each batch of samples a solution of 5 mM sodium formate clusters was also analysed. This acted as an external data file calibrant over the mass range 75-1000 m/z. The recalibrated detected mass and isotope pattern were used in the FindFormula tool to generate a list of potential theoretical formulae within 2 mDa of the detected mass. The detected isotope pattern was used to sort this list.
Data acquisition and automated processing was controlled via Compass OpenAccess 1.7 software (Bruker Daltonik GmbH, Bremen, Germany), and data processing was carried out using DataAnalysis 3.4 (Bruker Daltonik GmbH, Bremen, Germany). At each step care was taken to avoid sample degradation and oxidation by maintaining them on ice and under N2 gas as much as possible. Relative quantification by ion intensities was performed by the summation of intensities for protonated and sodiated ions to compensate for possible variation in adduct formation due to varying biological sodium levels.
With respect to Table 2, semi-quantitative MS analysis was performed to compare enriched AMEND preparations from control T84 cells to those with shRNA-mediated P-gp knockdown (B4-mdr1a and B5-mdr1a).

[1] = test system: HXA3-induced neutrophil migration; assay: 96-well neutrophil migration assay (modified Boyden chamber, cell-free); assay type: cell-based, human; details: for AMEND inhibitory activity of purified compounds in the cell-free migration assay: FIG. 2F
Procedure: Supernatants from T84 epithelial monolayers were enriched for lipids and tested for ability to inhibit HXA3-induced migration in a 96-well modified Boyden chamber assay (FIG. 2A). In order to compare across experiments with different donors, migration values within individual experiments were normalized to enriched HXA3 with vehicle treatment. […] FIG. 2C performed as in FIG. 2A, but prior to use in the migration assays enriched T84 supernatants were pretreated with FAAH or MAGL at 37 °C for 30 min. […] Commercially available endocannabinoids and related compounds were tested in the 96 well migration assay (FIG. 2F). Compounds were used at the highest concentration at which they were soluble in PBS. Data are mean+/−SEM of at least 3 independent experiments, *=p<0.05 and **=p<0.01 by one-way ANOVA.
96-well neutrophil migration.
Purified compounds used in migration assays.

MRP1 = MRP1 (Homo sapiens, UniProt P33527); details: low affinity substrate of MRP1; cited from earlier work
[2] = test system: neutrophil migration across NIH-H292 cells infected with Streptococcus pneumoniae; assay: In vitro PMN transepithelial migration across H292 monolayers infected with S. pneumoniae; assay type: cell-based, human; details: 100 μM pretreatment before infection with 10 MOI Streptococcus pneumoniae, vs mock-treated (FIG. 19A, FIG. 20D)
Procedure: S. pneumoniae can induce PMN transepithelial migration across model lung epithelia where a well-established in vitro model system is utilized. Briefly, H292 cells are seeded on permeable supports to form a barrier, thereby mimicking the in vivo architecture. Freshly isolated human neutrophils are then applied to the basolateral chamber of the transwell, allowing the neutrophils to transverse the epithelial layer in response to chemoattractants released by the epithelium.
Using an in vitro model of neutrophil (PMN) migration, we examined the results of MRP2 inhibition. NIH-H292 cells were incubated with 100 μM of the MRP2 inhibitor Probenecid (horizontal striped) or mock treated with PBS (black) before infection. Both control and probenecid treated cells were then washed and infected with 10 MOI Streptococcus pneumoniae. Neutrophils were placed in the basolateral chamber of the membrane construct and allowed to migrate post-infection. Neutrophils that have traveled to the apical chamber were quantified with a modified myeloperoxidase assay against a standard number of neutrophils. Shown in FIG. 20D is a representative data set that has been repeated at least 3 times. […] Uninfected cells are represented in white, labeled “Buffer”. Statics performed using unpaired T-test.

[3] = test system: C57BL/6 mice infected with Streptococcus pneumoniae; assay: S. pneumoniae lung infection of mice with MRP2 inhibition; assay type: in vivo
Procedure: FIGS. 19A-19E. MRP2 inhibition in vivo. Using an in vitro model of neutrophil migration, we examined the results of MRP2 inhibition. MRP2 inhibition via Probenecid treatment results in a reduction of neutrophils migrating in a basolateral-to-apical direction (FIG. 19A). Following this in vitro result, C57/B16 mice were treated with either PBS or Probenecid and subsequently infected with Streptococcus pneumoniae. Mice treated with probenecid had fewer Cd11b-positive/Ly6g-positive cells (neutrophils) in the bronchoalveolar lavage (BAL) isolated from infected lungs (FIG. 19B).
S. pneumoniae infection under conditions where MRP2 function was impeded with probenecid was examined. C57BL/6 mice were infected with between 1×10^5 and 3×10^5 bacteria via the trachea, leading to lobar pneumonia and progressing to bacteremia and sepsis, after which the mice succumb to infection. Probenecid was delivered 3 hours prior to infection as a primer and again at 3-hours post-infection.

[4] = B4-mdr1a P-gp knockdown T84 cells
[5] = B4-mdr1a P-gp knockdown vs control T84 cells
[6] = B5-mdr1a P-gp knockdown T84 cells
[7] = B5-mdr1a P-gp knockdown vs control T84 cells
[8] = used at 0.01 mg/mL (highest concentration soluble in PBS, diluted 1:10)

Sequence of P-gp (P08183 whole entry): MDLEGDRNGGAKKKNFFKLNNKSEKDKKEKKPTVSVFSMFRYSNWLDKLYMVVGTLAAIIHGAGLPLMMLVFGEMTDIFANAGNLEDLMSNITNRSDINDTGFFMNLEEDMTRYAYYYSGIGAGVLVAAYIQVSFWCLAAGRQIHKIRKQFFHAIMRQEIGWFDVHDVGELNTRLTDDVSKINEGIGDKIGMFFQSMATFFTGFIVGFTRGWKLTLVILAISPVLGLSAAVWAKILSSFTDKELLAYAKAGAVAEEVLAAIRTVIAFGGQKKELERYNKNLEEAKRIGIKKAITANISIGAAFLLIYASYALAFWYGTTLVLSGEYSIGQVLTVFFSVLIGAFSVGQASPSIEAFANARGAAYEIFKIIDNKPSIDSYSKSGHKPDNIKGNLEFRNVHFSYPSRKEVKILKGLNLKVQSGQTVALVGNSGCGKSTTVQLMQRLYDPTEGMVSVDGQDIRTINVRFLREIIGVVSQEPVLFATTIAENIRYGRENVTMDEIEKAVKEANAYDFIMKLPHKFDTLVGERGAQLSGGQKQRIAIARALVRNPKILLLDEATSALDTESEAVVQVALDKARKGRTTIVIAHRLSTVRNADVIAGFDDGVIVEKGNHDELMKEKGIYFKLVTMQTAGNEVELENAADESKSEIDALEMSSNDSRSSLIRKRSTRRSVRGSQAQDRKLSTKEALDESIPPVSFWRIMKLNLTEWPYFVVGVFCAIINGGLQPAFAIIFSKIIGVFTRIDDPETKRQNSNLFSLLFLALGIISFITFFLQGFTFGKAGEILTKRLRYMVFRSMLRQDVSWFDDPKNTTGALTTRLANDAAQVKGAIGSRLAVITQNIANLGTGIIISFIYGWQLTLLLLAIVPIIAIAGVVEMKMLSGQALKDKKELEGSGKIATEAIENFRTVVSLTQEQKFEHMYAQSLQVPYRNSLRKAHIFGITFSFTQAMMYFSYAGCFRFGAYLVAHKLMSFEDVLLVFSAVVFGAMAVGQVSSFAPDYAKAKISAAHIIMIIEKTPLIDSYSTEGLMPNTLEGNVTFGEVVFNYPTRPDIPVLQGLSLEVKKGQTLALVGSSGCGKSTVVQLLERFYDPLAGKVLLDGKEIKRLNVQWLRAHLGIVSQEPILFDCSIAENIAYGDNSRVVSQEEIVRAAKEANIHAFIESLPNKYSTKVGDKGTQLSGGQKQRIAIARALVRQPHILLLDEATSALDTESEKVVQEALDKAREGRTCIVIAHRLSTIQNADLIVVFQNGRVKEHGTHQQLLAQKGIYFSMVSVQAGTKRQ
Sequence of MRP1 (P33527 whole entry): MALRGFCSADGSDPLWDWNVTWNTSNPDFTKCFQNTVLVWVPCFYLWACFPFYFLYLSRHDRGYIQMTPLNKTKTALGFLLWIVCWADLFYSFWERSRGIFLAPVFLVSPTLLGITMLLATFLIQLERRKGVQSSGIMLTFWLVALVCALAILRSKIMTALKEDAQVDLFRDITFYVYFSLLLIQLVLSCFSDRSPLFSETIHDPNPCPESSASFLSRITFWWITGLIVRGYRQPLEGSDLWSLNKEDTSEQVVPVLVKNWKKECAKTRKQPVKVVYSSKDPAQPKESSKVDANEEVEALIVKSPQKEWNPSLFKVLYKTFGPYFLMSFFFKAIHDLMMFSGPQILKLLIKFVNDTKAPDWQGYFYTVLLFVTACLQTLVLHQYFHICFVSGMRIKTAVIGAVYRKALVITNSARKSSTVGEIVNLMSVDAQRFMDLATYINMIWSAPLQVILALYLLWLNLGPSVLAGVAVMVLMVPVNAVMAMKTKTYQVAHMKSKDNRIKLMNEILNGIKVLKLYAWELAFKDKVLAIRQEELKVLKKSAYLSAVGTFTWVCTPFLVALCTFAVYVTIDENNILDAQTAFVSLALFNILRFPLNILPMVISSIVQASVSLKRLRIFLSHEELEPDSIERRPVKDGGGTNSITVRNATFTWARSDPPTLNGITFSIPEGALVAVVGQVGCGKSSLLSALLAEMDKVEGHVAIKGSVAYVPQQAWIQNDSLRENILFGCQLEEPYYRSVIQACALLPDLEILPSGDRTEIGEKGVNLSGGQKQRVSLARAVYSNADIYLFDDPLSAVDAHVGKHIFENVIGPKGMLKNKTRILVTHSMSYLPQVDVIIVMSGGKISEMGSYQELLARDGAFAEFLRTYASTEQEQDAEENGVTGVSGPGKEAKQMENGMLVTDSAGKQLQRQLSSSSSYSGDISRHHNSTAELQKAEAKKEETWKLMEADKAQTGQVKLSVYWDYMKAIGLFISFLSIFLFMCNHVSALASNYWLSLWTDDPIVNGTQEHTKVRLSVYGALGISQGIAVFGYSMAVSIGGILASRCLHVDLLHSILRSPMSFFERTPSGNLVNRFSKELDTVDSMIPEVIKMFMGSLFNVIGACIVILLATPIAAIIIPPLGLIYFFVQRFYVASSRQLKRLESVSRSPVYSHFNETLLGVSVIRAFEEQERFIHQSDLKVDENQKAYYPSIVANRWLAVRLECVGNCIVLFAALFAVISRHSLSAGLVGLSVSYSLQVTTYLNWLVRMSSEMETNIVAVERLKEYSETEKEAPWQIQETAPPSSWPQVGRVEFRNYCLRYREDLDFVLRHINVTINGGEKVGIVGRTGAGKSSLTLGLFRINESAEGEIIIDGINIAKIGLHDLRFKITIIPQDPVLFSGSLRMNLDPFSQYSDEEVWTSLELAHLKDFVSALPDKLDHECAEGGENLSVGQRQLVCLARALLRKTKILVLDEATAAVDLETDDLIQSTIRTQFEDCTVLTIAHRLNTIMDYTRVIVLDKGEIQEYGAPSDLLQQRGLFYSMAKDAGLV

Structure (SMILES): CCCCC/C=C\C/C=C\C/C=C\C/C=C\CCCC(=O)OC(CO)CO [2-Arachidonoyl Glycerol (2-AG), 2-arachidonoyl glycerol]
- Average (relative abundance, normalized to anandamide-d8 standard) (P-gp; [4]): 32.17
- % of Control (P-gp; [5]): 91%
- Average (relative abundance, normalized to anandamide-d8 standard) (P-gp; [6]): 29.47
- % of Control (P-gp; [7]): 83%
- Average (relative abundance, normalized to anandamide-d8 standard) (P-gp; control T84 cells): 35.53

Structure (SMILES): CCCCC/C=C\C/C=C\C/C=C\C/C=C\CCCC(=O)NCCO [Anandamide (AEA), Arachidonoyl ethanolamide]
- AMEND inhibitory activity of purified compounds in the cell-free migration assay [1, 8]: significant inhibitory activity

Structure (SMILES): N[C@@H](CCC(=O)N[C@@H](CS)C(=O)NCC(=O)O)C(=O)O [Glutathione]
- Km (MRP1): 1000 to 5000 µM

Structure (SMILES): CCCCC[C@H](O)/C=C/C=C\C=C\C=C\[C@@H](O)[C@@H](O)CCCC(=O)O [Lipoxin A4]
- inhibitory activity on HXA3-induced migration after treatment with FAAH ([1]; pretreated with FAAH at 37°C for 30 min, Lipoxin used at 10 nM (FIG. 2C, FIG. 8)): not sensitive
- inhibitory activity on HXA3-induced migration after treatment with MAGL ([1]; pretreated with MAGL at 37°C for 30 min, Lipoxin used at 10 nM (FIG. 2C, FIG. 8)): not sensitive

Structure (SMILES): CCCCC/C=C\C/C=C\C/C=C\C/C=C\CCCC(=O)NCCc1ccc(O)c(O)c1 [N-Arachidonoyl Dopamine]
- Average (relative abundance, normalized to anandamide-d8 standard) (P-gp; [4]): 1.97
- Average (relative abundance, normalized to anandamide-d8 standard) (P-gp; [6]): 1.90
- Average (relative abundance, normalized to anandamide-d8 standard) (P-gp; control T84 cells): 0.00

Structure (SMILES): CCCCC/C=C\C/C=C\C/C=C\C/C=C\CCCCOC(CO)CO [Noladin ether]
- Average (relative abundance, normalized to anandamide-d8 standard) (P-gp; [4]): 154.03
- % of Control (P-gp; [5]): 461%
- Average (relative abundance, normalized to anandamide-d8 standard) (P-gp; [6]): 56.23
- % of Control (P-gp; [7]): 168%
- Average (relative abundance, normalized to anandamide-d8 standard) (P-gp; control T84 cells): 33.43

Structure (SMILES): CCCCCCCC/C=C\CCCCCCCC(=O)NCCO [Oleoyl ethanolamide (OEA), Oleoyl ethanolamide]
- AMEND inhibitory activity of purified compounds in the cell-free migration assay [1, 8]: significant inhibitory activity

Structure (SMILES): CCCN(CCC)S(=O)(=O)c1ccc(C(=O)O)cc1 [Probenecid]
- number of neutrophils migrating basolateral-to-apical across infected H292 monolayers [2]: effectively reduced
- number of neutrophils migrating basolateral-to-apical across infected H292 monolayers ([2]; listed as probenecid): significantly fewer
- reduction in bacteremia ([3]; 48 post-infection, no longer statistically significant (FIG. 19C)): 10 fold
- number of bacteria in the lung ([3]; 48 hours post-infection): the same
- other granulocytes in the mouse lung ([3]; Cd11b+/Cd45+/Ly6g- granulocytes (FIG. 19D)): no reduction
- lower CFU in the blood of mice that developed bacteremia, compared to PBS-treated mice ([3]; D1 post-infection (FIG. 19C)): approximately 10 fold
- cases of bacteremia ([3]; D1 post-infection, vs PBS-treated mice (FIG. 19C)): fewer cases
- fewer neutrophils in bronchoalveolar lavage fluid (BALF) than PBS-treated mice ([3]; Day 1 post-infection, delivered 3 hours prior to and 3 hours post-infection (FIG. 19B)): 35%
- difference in the bacterial CFU in mice that did not develop bacteremia ([3]; failed to reach statistical significance (FIG. 19E)): approximately 2 fold

Structure (SMILES): CC/C=C\C/C=C\C/C=C\CCCCCCCC(=O)NCCO [α-LEA, α-Linolenoyl Ethanolamide]
- AMEND inhibitory activity of purified compounds in the cell-free migration assay ([1]; used at 0.005 mg/mL (highest concentration soluble in PBS, diluted 1:10)): significant inhibitory activity

From patent US20240207212A1, “METHODS AND COMPOSITIONS FOR TREATING INFLAMMATION” (priority 2017, published 2024)
